Assays:
late watergrass = assay: Test Example 1: herbicidal activity, application before weed generation under submerged conditions (Table 16, symbol A); type: in vivo, late watergrass (Echinochloa oryzicola)
In short: (§1)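 Emulsion formulation, water-diluted to set dose, was put onto the flooded surface (4 cm depth, alluvial soil) the same day weeds were sown and 2.5-leaf rice transplanted. After 3 weeks at 25-30 °C under glass, each species was rated 0 (≤5% kill) to 5 (≥90% kill).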

Japanese bulrush [1] = assay: Test Example 1: herbicidal activity, application before weed generation under submerged conditions (Table 16, symbol B); type: in vivo, Japanese bulrush (Schoenoplectus juncoides)
In short: as §1

Japanese bulrush [2] = assay: Test Example 2: herbicidal activity, application during weed generation under submerged conditions (Table 17, symbol B); type: in vivo, Japanese bulrush (Schoenoplectus juncoides); settings: application during weed generation, submerged conditions
In short: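 Steps: fill Wagner pots with alluvial soil; add water to give 4 cm depth; sow the species mixed; grow under glass at 25–30° C.; at 1–2 leaves apply water-diluted emulsion formulation to the water surface at a fixed herbicide amount; score after 3 weeks.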

barnyard grass [3] = assay: Test Example 3: herbicidal effect by foliage application, Wagner pot (Table 18, symbol H); type: in vivo, barnyard grass (Echinochloa crus-galli)
In short: (§2)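 Plants were sown in alluvial soil held under 0.1–0.5 cm standing water and grown 14 days in a greenhouse at 25–30 °C. An emulsifiable formulation, water-diluted to the set dose, was then sprayed onto the foliage, and effects were scored three weeks later using previously defined criteria.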

Chinese sprangletop = assay: Test Example 3: herbicidal effect by foliage application, Wagner pot (Table 18, symbol D); type: in vivo, chinese sprangletop (Leptochloa chinensis)
In short: as §2

southern crabgrass = assay: Test Example 4: herbicidal effect by soil treatment (Table 19, symbol F); type: in vivo, southern crabgrass (Digitaria ciliaris)
In short: (§3)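 Pre-emergence style soil spray: seeds under ~1.5 cm sterilized diluvial soil received a uniform coat of emulsion diluted to the predetermined herbicide amount. Greenhouse 25–30° C; readout at week three on previously defined criteria.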

barnyard grass [4] = assay: Test Example 4: herbicidal effect by soil treatment (Table 19, symbol H); type: in vivo, barnyard grass (Echinochloa crus-galli)
In short: as §3

windgrass [5] = assay: Test Example 4: herbicidal effect by soil treatment (Table 19, symbol L); type: in vivo, windgrass (Apera spica-venti)
In short: as §3

lambsquarters [6] = assay: Test Example 4: herbicidal effect by soil treatment (Table 19, symbol O); type: in vivo, lambsquarters (Chenopodium album)
In short: as §3

persian speedwell = assay: Test Example 4: herbicidal effect by soil treatment (Table 19, symbol R); type: in vivo, Persian speedwell (Veronica persica)
In short: as §3

barnyard grass [7] = assay: Test Example 5: herbicidal effect by foliage application, plastic box (Table 20, symbol H); type: in vivo, barnyard grass (Echinochloa crus-galli); settings: foliage application; for H: barnyard grass, herbicidal effect: three weeks after application
In short: (§4)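 Plants were sown into sterilized diluvial soil under about 1.5 cm cover and kept in a greenhouse at 25° C. to 30° C. Fourteen days on, foliage received an even spray of the diluted emulsion. Herbicidal or crop effect was judged three weeks afterwards.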

blackgrass = assay: Test Example 5: herbicidal effect by foliage application, plastic box (Table 20, symbol J); type: in vivo, blackgrass (Alopecurus myosuroides); settings: foliage application; for J: blackgrass, herbicidal effect: three weeks after application
In short: as §4

windgrass [8] = assay: Test Example 5: herbicidal effect by foliage application, plastic box (Table 20, symbol L); type: in vivo, windgrass (Apera spica-venti); settings: foliage application; for L: windgrass, herbicidal effect: three weeks after application
In short: as §4

redroot pigweed = assay: Test Example 5: herbicidal effect by foliage application, plastic box (Table 20, symbol N); type: in vivo, redroot pigweed (Amaranthus retroflexus); settings: foliage application; for N: redroot pigweed, herbicidal effect: three weeks after application
In short: as §4

lambsquarters [9] = assay: Test Example 5: herbicidal effect by foliage application, plastic box (Table 20, symbol O); type: in vivo, lambsquarters (Chenopodium album); settings: foliage application; for O: lambsquarters, herbicidal effect: three weeks after application
In short: as §4

chickweed = assay: Test Example 5: herbicidal effect by foliage application, plastic box (Table 20, symbol P); type: in vivo, common chickweed (Stellaria media); settings: foliage application; for P: chickweed, herbicidal effect: three weeks after application
In short: as §4

[10] = 320 g/ha, evaluated three weeks after application

Row | SMILES | Herbicidal effect on A: late watergrass (grade 0-5) (late watergrass; 320 g/ha applied herbicide) | Herbicidal effect on B: Japanese bulrush (grade 0-5) (Japanese bulrush [1]; 320 g/ha applied herbicide) | herbicidal effect rating, B: Japanese bulrush (Japanese bulrush [2]; AAH 320 g/ha) | herbicidal effect on H (barnyard grass), rating 0-5 (barnyard grass [3]; 320 g/ha) | herbicidal effect on D (Chinese sprangletop), rating 0-5 (Chinese sprangletop; 320 g/ha) | F: southern crabgrass, herbicidal effect rating (southern crabgrass; AAH 320 g/ha) | H: barnyard grass, herbicidal effect rating (barnyard grass [4]; AAH 320 g/ha) | L: windgrass, herbicidal effect rating (windgrass [5]; AAH 320 g/ha) | O: lambsquarters, herbicidal effect rating (lambsquarters [6]; AAH 320 g/ha) | R: persian speedwell, herbicidal effect rating (persian speedwell; AAH 320 g/ha) | H: barnyard grass, herbicidal effect (barnyard grass [7]; AAH 320 g/ha) | J: blackgrass, herbicidal effect (blackgrass; AAH 320 g/ha) | L: windgrass, herbicidal effect (windgrass [8]; AAH 320 g/ha) | N: redroot pigweed, herbicidal effect (redroot pigweed; AAH 320 g/ha) | O: lambsquarters, herbicidal effect (lambsquarters [9]; AAH 320 g/ha) | P: chickweed, herbicidal effect (chickweed; AAH 320 g/ha) | other results
1 | CSCCOc1ccc(-c2sc3ccccc3c2-c2c(O)c(C)nn(C)c2=O)cc1 [1-141] | 3 (Herbicidal rate of 40% or more and less than 70%) | 0 (Herbicidal rate of 5% or less (almost no effect)) | 3 (Herbicidal rate of 40% or more and less than 70%) | 5 (Herbicidal rate of 90% or more (almost completely withered)) | 3 (Herbicidal rate of 40% or more and less than 70%) | 4 (Herbicidal rate of 70% or more and less than 90%) | 4 (Herbicidal rate of 70% or more and less than 90%) | 3 (Herbicidal rate of 40% or more and less than 70%) | 5 (Herbicidal rate of 90% or more (almost completely withered)) | 5 (Herbicidal rate of 90% or more (almost completely withered)) | 5 (Herbicidal rate of 90% or more (almost completely withered)) | 5 (Herbicidal rate of 90% or more (almost completely withered)) | 5 (Herbicidal rate of 90% or more (almost completely withered)) | 5 (Herbicidal rate of 90% or more (almost completely withered)) | 5 (Herbicidal rate of 90% or more (almost completely withered)) | 5 (Herbicidal rate of 90% or more (almost completely withered)) | –
2 | Cc1nn(C)c(=O)c(-c2c(-c3ccc(OCC4CC4)cc3)sc3ccccc23)c1O [1-142] | 3 (Herbicidal rate of 40% or more and less than 70%) | 5 (Herbicidal rate of 90% or more (almost completely withered)) | 2 (Herbicidal rate of 20% or more and less than 40%) | 3 (Herbicidal rate of 40% or more and less than 70%) | 1 (Herbicidal rate of 5% or more and less than 20%) | 0 (Herbicidal rate of 5% or less (almost no effect)) | 3 (Herbicidal rate of 40% or more and less than 70%) | 0 (Herbicidal rate of 5% or less (almost no effect)) | 5 (Herbicidal rate of 90% or more (almost completely withered)) | 5 (Herbicidal rate of 90% or more (almost completely withered)) | 3 (Herbicidal rate of 40% or more and less than 70%) | 0 (Herbicidal rate of 5% or less (almost no effect)) | 1 (Herbicidal rate of 5% or more and less than 20%) | 2 (Herbicidal rate of 20% or more and less than 40%) | 3 (Herbicidal rate of 40% or more and less than 70%) | 5 (Herbicidal rate of 90% or more (almost completely withered)) | –
3 | COCCOc1ccc(-c2sc3ccccc3c2-c2c(O)c(C)nn(C)c2=O)cc1 [1-148] | – | – | – | – | – | – | – | – | – | – | – | – | – | – | – | – | Herbicidal effect on A: late watergrass (grade 0-5) (late watergrass; 368 g/ha applied herbicide): 3 (Herbicidal rate of 40% or more and less than 70%); Herbicidal effect on B: Japanese bulrush (grade 0-5) (Japanese bulrush [1]; 368 g/ha applied herbicide): 3 (Herbicidal rate of 40% or more and less than 70%); herbicidal effect rating, B: Japanese bulrush (Japanese bulrush [2]; AAH 368 g/ha): 3 (Herbicidal rate of 40% or more and less than 70%); herbicidal effect on H (barnyard grass), rating 0-5 (barnyard grass [3]; 368 g/ha): 5 (Herbicidal rate of 90% or more (almost completely withered)); herbicidal effect on D (Chinese sprangletop), rating 0-5 (Chinese sprangletop; 368 g/ha): 4 (Herbicidal rate of 70% or more and less than 90%); F: southern crabgrass, herbicidal effect rating (southern crabgrass; AAH 368 g/ha): 4 (Herbicidal rate of 70% or more and less than 90%); H: barnyard grass, herbicidal effect rating (barnyard grass [4]; AAH 368 g/ha): 5 (Herbicidal rate of 90% or more (almost completely withered)); L: windgrass, herbicidal effect rating (windgrass [5]; AAH 368 g/ha): 0 (Herbicidal rate of 5% or less (almost no effect)); O: lambsquarters, herbicidal effect rating (lambsquarters [6]; AAH 368 g/ha): 5 (Herbicidal rate of 90% or more (almost completely withered)); R: persian speedwell, herbicidal effect rating (persian speedwell; AAH 368 g/ha): 5 (Herbicidal rate of 90% or more (almost completely withered)); H: barnyard grass, herbicidal effect (barnyard grass [7]; AAH 368 g/ha): 5 (Herbicidal rate of 90% or more (almost completely withered)); J: blackgrass, herbicidal effect (blackgrass; AAH 368 g/ha): 4 (Herbicidal rate of 70% or more and less than 90%); L: windgrass, herbicidal effect (windgrass [8]; AAH 368 g/ha): 4 (Herbicidal rate of 70% or more and less than 90%); N: redroot pigweed, herbicidal effect (redroot pigweed; AAH 368 g/ha): 5 (Herbicidal rate of 90% or more (almost completely withered)); O: lambsquarters, herbicidal effect (lambsquarters [9]; AAH 368 g/ha): 5 (Herbicidal rate of 90% or more (almost completely withered)); P: chickweed, herbicidal effect (chickweed; AAH 368 g/ha): 5 (Herbicidal rate of 90% or more (almost completely withered))
4 | Cc1nn(C)c(=O)c(-c2c(-c3ccc(OCC(F)(F)F)cc3)sc3ccc(F)cc23)c1O [2-049] | 2 (Herbicidal rate of 20% or more and less than 40%) | 3 (Herbicidal rate of 40% or more and less than 70%) | 2 (Herbicidal rate of 20% or more and less than 40%) | 5 (Herbicidal rate of 90% or more (almost completely withered)) | 5 (Herbicidal rate of 90% or more (almost completely withered)) | – | – | – | – | – | – | – | – | – | – | – | herbicidal effect rating, F: southern crabgrass (southern crabgrass; 320 g/ha): 4 (Herbicidal rate of 70% or more and less than 90%); herbicidal effect rating, H: barnyard grass (barnyard grass [4]; 320 g/ha): 5 (Herbicidal rate of 90% or more (almost completely withered)); herbicidal effect rating, L: windgrass (windgrass [5]; 320 g/ha): 5 (Herbicidal rate of 90% or more (almost completely withered)); herbicidal effect rating, O: lambsquarters (lambsquarters [6]; 320 g/ha): 5 (Herbicidal rate of 90% or more (almost completely withered)); herbicidal effect rating, R: persian speedwell (persian speedwell; 320 g/ha): 4 (Herbicidal rate of 70% or more and less than 90%); herbicidal effect on H: barnyard grass (barnyard grass [7]; [10]): 5 (Herbicidal rate of 90% or more (almost completely withered)); herbicidal effect on J: blackgrass (blackgrass; [10]): 5 (Herbicidal rate of 90% or more (almost completely withered)); herbicidal effect on L: windgrass (windgrass [8]; [10]): 5 (Herbicidal rate of 90% or more (almost completely withered)); herbicidal effect on N: redroot pigweed (redroot pigweed; [10]): 5 (Herbicidal rate of 90% or more (almost completely withered)); herbicidal effect on O: lambsquarters (lambsquarters [9]; [10]): 5 (Herbicidal rate of 90% or more (almost completely withered)); herbicidal effect on P: chickweed (chickweed; [10]): 5 (Herbicidal rate of 90% or more (almost completely withered))
